Results as given in patent publication US20100216795A1, “TNIK INHIBITOR AND THE USE” (priority 2008, published 2010).

Key:
Type in all cases: biochemical
[1] = biological target: T1, human TNIK (N-terminal segment, TNIK_N) (Homo sapiens, UniProt Q9UKE5); assay: TNIK kinase assay (mobility shift); details: stated in text of Test Example 2
T1 construct: made in house; host or cells: Sf21 insect cells (baculovirus)
Text: A cDNA encoding the N-terminal segment (TNIK_N, residues 1-314) containing the kinase domain of human TNIK (NM_015028.1) was amplified from cDNA mixture synthesized from human tissue (Biochain) by PCR using the following primers: 5′-[…]-3′ ([SEQ ID NO:1]: forward primer, the underlined nucleotides indicates the location of a EheI site); 5′-[…]-3′ ([SEQ ID NO:2]: reverse primer, the underlined nucleotides indicates the location of a NotI site). The cDNA was subcloned into baculovirus transfer vector pFastBac_GSTb that includes protease cleavage site and glutathione S-transferase purification tag (GST-tag). The plasmid was purified and the insertion of the pFastBac_GSTb-TNIK_N was confirmed by DNA sequencing. Then E. coli DH10Bac competent cells were transformed with the plasmid to prepare the recombinant bacmid according to the instructions for the Bac-to-Bac™ baculovirus expression systems (Invitrogen). The Sf9 cells were transfected with the recombinant bacmid containing pFastBac_GSTb-TNIK_N using Cellfectin Reagent (Invitrogen) in SF-900II serum free media (Invitrogen). The viral supernatant was collected from the medium 72 h after transfection. The virus was amplified three times by infecting actively growing Sf9 or Sf21 cells in Grace's insect media (Invitrogen) supplemented with 10% FCS and an antibiotic-antimycotic reagent (Invitrogen) for 72 h at 27° C. in T-flask or roller bottles. The titer of amplified TNIK_N virus was estimated at 2.36×10^8 pfu/ml by using BacPAK™ Baculovirus Rapid Titer kit (Clontech).
Log-phase Sf21 cells (2×10^6 cells/ml) in the Grace's insect media were infected with the recombinant baculovirus at MOI of 3.0 and incubated in roller bottles (250 ml media per bottle) for 72 h at 27° C., after which, the cells were collected by centrifugation, and the cell pellet washed with cold PBS and kept at −80° C. until purification. The following purification procedures were carried out at 4° C. The frozen cells were thawed on ice and lysed in lysis buffer (50 mM Tris-HCl, pH 7.5, 150 mM NaCl, 1% Nonidet P-40, 5 mM DTT, 0.5 mM EDTA, 0.5 mM EGTA) supplemented with 1 mM phenylmethansulfonylfluoride, 2 μg/ml leupeptin, 2 μg/ml aprotinin, 1 mM NaF, 100 μM sodium orthovanadate, and 1 μM cantharidin by sonication. The suspended lysate was cleared by centrifugation at 9000 g for 20 min and the supernatant was incubated for 1 h with glutathione Sepharose beads (GE Healthcare). The beads were suspended in buffer-H (50 mM Tris-HCl, pH 7.5, 1 M NaCl, 1 mM DTT, 0.5 mM EDTA, 0.5 mM EGTA and 0.05% Brij35) and washed with buffer-H followed by buffer-L (50 mM Tris-HCl, pH 7.5, 150 mM NaCl, 1 mM DTT, 0.5 mM EDTA, 0.5 mM EGTA, 0.05% Brij35) in an Econo-pack column (BIO-RAD). The bound TNIK_N was eluted with elution buffer (50 mM Tris-HCl, pH 8.0, 150 mM NaCl, 1 mM DTT, 10% glycerol, 0.5 mM EDTA, 0.5 mM EGTA and 5 mM reduced glutathione). The eluted fractions were collected and determined the protein concentration by Bradford reagent (BIO-RAD). The TNIK_N fractions were pooled and desalted using 10DG column (BIORAD) equilibrated with the storage buffer (50 mM Tris-HCl, pH 7.5, 150 mM NaCl, 1 mM DTT, 10% glycerol, 0.05% Brij35). The purified TNIK_N was characterized by electrophoresis using 4-20% polyacrylamide gels and matrix-assisted laser desorption/ionization reflection time-of-flight (MALDI-TOF) mass spectrometry on a Voyager-DE RP MALDI/TOF (Applied Biosystems). TNIK_N was confirmed by the molecular weight and MASCOT Peptide Mass Fingerprint.
The kinase assays were conducted in a 20 μl volume using 384-well plates (Greiner). The reaction mixture consists of compound or vehicle (1% DMSO), 0.08 ng/μl TNIK_N, 1 μM FITC-labeled substrate peptides, FITC-x-Lys-Tyr-Lys-Thr-Leu-Arg-Gln ([SEQ ID NO.3], x: ε-aminocaproic acid), 20 mM Hepes, pH 7.5, 0.01% Triton X-100, 5 mM MgCl2, 25 μM ATP and 2 mM DTT. As blank, TNIK_N was excluded from the reaction mixture of vehicle (1% DMSO). […]

CK1e = biological target: T2, CK1e (Homo sapiens, UniProt P49674); assay: Selectivity profiling, QuickScout STK Screening Panel
T2 construct: purchased Carna Biosciences
T2 sequence (P49674 whole entry): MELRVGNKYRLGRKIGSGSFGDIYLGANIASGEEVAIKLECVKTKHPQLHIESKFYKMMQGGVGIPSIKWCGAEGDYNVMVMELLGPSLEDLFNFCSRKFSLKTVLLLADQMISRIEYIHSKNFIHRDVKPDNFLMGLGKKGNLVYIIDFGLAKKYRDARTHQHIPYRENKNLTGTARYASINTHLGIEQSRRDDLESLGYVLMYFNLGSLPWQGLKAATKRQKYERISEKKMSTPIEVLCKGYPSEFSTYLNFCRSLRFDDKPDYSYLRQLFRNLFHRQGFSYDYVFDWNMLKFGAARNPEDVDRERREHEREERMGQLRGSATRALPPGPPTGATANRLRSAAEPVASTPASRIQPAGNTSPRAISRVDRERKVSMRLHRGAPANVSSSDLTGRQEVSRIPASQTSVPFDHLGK
Method: (§1) The inhibitory effects of Compound 1 against 20 tyrosine kinases and 30 serine/threonine kinases were investigated using QuickScout™ TK and STK Screening Panel (Carna Biosciences, Kobe Japan). […] The results reveal that Compound 1 inhibits TNIK_N more potently (IC50; 9 nM) than the other 50 kinases.

RAF1 = RAF1 (Homo sapiens, UniProt P04049); assay: as above
Chain of RAF1 (P04049 whole entry Y340D/Y341D, form open): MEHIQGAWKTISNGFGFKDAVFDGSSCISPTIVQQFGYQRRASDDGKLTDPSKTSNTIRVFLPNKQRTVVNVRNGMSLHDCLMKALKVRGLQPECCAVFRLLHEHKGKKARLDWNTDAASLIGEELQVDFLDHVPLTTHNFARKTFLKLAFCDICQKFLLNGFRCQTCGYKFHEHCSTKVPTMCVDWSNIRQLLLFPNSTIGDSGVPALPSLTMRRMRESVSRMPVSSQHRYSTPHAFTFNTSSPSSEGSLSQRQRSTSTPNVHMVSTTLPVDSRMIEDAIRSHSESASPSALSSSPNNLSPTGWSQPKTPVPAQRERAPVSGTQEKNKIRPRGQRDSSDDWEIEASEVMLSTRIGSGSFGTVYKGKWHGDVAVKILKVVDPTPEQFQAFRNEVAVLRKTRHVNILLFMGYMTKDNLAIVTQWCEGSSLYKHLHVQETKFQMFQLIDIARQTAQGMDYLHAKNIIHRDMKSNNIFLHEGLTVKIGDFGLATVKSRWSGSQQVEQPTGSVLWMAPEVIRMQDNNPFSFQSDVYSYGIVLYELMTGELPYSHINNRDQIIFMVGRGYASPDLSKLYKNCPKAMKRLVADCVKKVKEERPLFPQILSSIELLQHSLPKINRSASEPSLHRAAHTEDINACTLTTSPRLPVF
Method: as §1

PKD2 = biological target: T3, PKD2 (Homo sapiens, UniProt Q9BZL6); assay: as above
T3 construct: purchased Carna Biosciences
T3 sequence (Q9BZL6 whole entry): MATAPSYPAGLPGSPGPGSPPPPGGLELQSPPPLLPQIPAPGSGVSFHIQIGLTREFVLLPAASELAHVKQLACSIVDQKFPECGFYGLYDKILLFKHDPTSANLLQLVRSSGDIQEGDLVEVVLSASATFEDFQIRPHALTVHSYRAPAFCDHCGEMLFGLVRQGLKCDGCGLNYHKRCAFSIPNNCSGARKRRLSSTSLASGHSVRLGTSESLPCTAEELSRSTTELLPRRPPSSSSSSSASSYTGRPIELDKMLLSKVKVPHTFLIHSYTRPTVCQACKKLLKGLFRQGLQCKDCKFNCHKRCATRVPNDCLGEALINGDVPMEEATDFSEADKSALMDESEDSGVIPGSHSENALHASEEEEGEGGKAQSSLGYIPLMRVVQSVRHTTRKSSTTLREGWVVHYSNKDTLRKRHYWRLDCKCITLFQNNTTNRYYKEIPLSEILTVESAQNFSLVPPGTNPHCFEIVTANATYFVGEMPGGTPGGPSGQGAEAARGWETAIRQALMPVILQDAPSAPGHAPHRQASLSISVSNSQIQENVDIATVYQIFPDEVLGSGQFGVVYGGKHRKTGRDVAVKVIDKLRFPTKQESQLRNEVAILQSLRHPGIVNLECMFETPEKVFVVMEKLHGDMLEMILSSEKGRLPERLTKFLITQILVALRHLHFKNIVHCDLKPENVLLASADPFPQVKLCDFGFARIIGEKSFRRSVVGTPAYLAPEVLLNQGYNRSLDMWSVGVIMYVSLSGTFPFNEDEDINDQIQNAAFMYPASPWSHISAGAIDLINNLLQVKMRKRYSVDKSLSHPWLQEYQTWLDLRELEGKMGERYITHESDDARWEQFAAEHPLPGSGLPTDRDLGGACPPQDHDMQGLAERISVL
Method: as §1

NEK2 = biological target: T4, NEK2 (Homo sapiens, UniProt P51955); assay: as above
T4 construct: purchased Carna Biosciences
T4 sequence (P51955 whole entry): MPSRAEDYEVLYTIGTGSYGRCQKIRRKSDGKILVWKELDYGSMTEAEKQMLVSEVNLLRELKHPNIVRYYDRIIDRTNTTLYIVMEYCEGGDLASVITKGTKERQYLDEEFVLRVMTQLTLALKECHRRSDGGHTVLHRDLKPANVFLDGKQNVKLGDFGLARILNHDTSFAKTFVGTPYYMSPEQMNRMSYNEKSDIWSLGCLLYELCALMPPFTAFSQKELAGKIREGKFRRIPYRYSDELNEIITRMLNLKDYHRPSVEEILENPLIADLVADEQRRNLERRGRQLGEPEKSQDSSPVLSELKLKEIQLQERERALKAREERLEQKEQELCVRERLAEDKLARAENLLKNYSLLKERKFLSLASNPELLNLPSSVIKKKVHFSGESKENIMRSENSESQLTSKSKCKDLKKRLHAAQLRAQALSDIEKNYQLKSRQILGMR
Method: as §1

AMPKa1/b1/g1 = biological target: T5, AMPKa1/b1/g1 (Homo sapiens, UniProt P54619+Q13131+Q9Y478); assay: as above
T5 construct: purchased Carna Biosciences
Method: as §1

SGK = biological target: T6, SGK (Homo sapiens, UniProt O00141); assay: as above
T6 construct: purchased Carna Biosciences
Method: as §1

DYRK1B = biological target: T7, DYRK1B (Homo sapiens, UniProt Q9Y463); assay: as above
T7 construct: purchased Carna Biosciences
Method: as §1

IRAK4 = biological target: T8, IRAK4 (Homo sapiens, UniProt Q9NWZ3); assay: as above
T8 construct: purchased Carna Biosciences
Method: as §1

p70S6K = biological target: T9, p70S6K (Homo sapiens, UniProt P23443); assay: as above
T9 construct: purchased Carna Biosciences
Method: as §1

DAPK1 = biological target: T10, DAPK1 (Homo sapiens, UniProt P53355); assay: as above
T10 construct: purchased Carna Biosciences
T10 sequence (P53355 whole entry): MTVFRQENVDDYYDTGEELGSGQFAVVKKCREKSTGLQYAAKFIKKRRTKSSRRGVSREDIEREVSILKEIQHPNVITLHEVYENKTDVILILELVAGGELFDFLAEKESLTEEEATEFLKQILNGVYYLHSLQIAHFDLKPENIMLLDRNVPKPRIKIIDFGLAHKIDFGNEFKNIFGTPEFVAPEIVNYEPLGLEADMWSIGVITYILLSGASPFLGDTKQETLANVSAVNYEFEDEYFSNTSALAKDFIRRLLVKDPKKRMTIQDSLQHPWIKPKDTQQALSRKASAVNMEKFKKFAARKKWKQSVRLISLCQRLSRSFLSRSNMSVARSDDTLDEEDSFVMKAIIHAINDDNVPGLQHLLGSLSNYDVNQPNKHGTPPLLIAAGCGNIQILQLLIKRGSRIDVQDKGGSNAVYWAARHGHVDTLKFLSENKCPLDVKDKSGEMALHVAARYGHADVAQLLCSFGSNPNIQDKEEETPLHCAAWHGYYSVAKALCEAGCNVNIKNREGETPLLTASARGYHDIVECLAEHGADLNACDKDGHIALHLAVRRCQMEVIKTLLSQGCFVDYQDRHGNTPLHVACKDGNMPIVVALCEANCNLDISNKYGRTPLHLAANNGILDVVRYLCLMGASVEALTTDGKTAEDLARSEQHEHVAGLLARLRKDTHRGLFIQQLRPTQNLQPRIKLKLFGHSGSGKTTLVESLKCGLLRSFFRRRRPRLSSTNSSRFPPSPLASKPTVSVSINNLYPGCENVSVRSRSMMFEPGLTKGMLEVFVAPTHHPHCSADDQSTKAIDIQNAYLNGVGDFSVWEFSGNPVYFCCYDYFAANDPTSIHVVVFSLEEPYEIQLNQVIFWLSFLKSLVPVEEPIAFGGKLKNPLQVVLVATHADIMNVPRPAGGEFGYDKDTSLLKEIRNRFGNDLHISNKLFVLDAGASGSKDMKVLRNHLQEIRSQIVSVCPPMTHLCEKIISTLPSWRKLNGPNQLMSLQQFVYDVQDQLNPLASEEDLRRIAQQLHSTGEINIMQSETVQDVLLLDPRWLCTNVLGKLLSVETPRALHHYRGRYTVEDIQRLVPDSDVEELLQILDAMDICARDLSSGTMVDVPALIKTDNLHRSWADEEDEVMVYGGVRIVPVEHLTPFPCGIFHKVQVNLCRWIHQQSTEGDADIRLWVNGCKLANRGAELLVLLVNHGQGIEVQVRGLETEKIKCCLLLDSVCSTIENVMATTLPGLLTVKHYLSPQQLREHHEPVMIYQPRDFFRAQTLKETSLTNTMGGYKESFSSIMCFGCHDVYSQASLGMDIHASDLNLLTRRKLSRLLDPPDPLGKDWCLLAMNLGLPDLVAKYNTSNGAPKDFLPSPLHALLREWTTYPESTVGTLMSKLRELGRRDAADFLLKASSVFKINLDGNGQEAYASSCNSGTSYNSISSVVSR
Method: as §1

CDK2 = biological target: T11, CDK2 (Homo sapiens, UniProt P24941); assay: as above
T11 construct: purchased Carna Biosciences
Method: as §1

CaMK4 = biological target: T12, CaMK4 (Homo sapiens, UniProt Q16566); assay: as above
T12 construct: purchased Carna Biosciences
Method: as §1

MLK1 = biological target: T13, MLK1 (Homo sapiens, UniProt P80192); assay: as above
T13 construct: purchased Carna Biosciences
T13 sequence (P80192 whole entry): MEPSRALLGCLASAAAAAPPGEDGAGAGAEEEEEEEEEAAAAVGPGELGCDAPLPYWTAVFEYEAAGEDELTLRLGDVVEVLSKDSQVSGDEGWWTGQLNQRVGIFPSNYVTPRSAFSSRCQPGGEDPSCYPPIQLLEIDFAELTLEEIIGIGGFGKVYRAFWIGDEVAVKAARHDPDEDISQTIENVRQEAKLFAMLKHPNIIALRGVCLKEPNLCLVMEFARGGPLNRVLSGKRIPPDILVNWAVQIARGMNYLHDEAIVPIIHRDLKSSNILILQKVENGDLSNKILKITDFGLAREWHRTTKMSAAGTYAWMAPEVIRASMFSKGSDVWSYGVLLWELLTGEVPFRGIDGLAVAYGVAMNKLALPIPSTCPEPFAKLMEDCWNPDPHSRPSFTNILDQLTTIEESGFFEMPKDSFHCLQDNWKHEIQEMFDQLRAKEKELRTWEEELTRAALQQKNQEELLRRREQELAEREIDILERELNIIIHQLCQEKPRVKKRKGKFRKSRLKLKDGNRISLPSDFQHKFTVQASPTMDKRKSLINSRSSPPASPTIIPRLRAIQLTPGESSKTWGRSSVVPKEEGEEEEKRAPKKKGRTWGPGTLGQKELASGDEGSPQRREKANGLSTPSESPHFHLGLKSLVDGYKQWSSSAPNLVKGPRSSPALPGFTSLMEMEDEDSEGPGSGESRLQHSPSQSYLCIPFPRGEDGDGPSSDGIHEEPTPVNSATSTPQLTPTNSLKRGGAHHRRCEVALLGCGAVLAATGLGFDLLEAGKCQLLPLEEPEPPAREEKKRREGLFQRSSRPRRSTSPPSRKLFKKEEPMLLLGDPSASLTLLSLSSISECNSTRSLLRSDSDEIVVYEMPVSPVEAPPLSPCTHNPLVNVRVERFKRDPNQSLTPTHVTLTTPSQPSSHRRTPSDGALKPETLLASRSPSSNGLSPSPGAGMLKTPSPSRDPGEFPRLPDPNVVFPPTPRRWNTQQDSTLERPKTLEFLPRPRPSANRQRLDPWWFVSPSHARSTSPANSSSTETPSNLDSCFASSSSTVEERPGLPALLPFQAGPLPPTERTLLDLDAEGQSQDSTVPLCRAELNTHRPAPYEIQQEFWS
Method: as §1

Structure (SMILES): CC(=O)Nc1ccc(C(=O)Nc2sc(Nc3ccccc3)nc2C(N)=O)cc1 [Compound 1, 5-(4-acetamidobenzamido)-2-(phenylamino)thiazole-4-carboxamide]
- IC50 [1]: 9 nM
- IC50 (CK1e): > 300 nM
- IC50 (RAF1): > 300 nM
- IC50 (PKD2): > 300 nM
- IC50 (NEK2): > 300 nM
- IC50 (AMPKa1/b1/g1): > 300 nM
- IC50 (SGK): > 300 nM
- IC50 (DYRK1B): > 300 nM
- IC50 (IRAK4): > 300 nM
- IC50 (p70S6K): > 300 nM
- IC50 (DAPK1): > 300 nM
- IC50 (CDK2): > 300 nM
- IC50 (CaMK4): > 300 nM
- IC50 (MLK1): 18 nM
